Residues, ends and D or L forms follow the SMILES beside them. *: point of attachment. Cbz = O=C(OCc1ccccc1)*
How the values were obtained:
[1] = tested on: insoluble α-globin; assay: Detection of insoluble α-globin precipitates (TAU gel) in erythroid cells of treated mice; assay type: in vivo; settings: FIG. 2
Procedure: Briefly, 20 μL of washed RBCs (normalized based on the hematocrit percentage) were lysed and centrifuged at 16,000×g at 4° C. for 30 minutes. The pellets were washed extensively in ice-cold 0.05×PBS. Membrane lipids were extracted with 56 mM sodium borate, pH 8.0, containing 0.1% TWEEN-20, at 4° C. Precipitated globins were dissolved in 8M urea, 10% acetic acid, 10% β-mercaptoethanol, and 0.04% pyronin, fractionated by TRITON-acetic acid-urea (TAU) gel electrophoresis, and stained with COOMASSIE brilliant blue. Soluble hemoglobin fractions were analyzed and quantified as loading controls by using AlphaView SA 3.4.0 (ProteinSimple).
(§1) Tissue samples were submitted for pathology analysis.
(§2) Insoluble α-globin in reticulocytes from rapamycin-treated Hbb^Th3/+ mice was decreased by approximately 50% (FIG. 2).

[2] = tested on: β-thalassemic and control mice; assay: Hematologic analysis of mice treated with rapamycin for 30 days; assay type: in vivo
Procedure: Mice were analyzed at 1-6 months of age. Blood was collected by submandibular bleeding, anticoagulated with EDTA, and analyzed on a FORCYTE Veterinary Hematology Analyzer.
as §1

[3] = tested on: β-thalassemic and control mice; assay: Pathology grading of erythropoiesis (bone marrow, spleen, liver) in rapamycin-treated mice; assay type: in vivo; settings: rapamycin 30 days; for Bone marrow erythropoiesis grade / Liver erythropoiesis grade / Spleen erythropoiesis grade: grade scale 0-5; for Final grade (sum of the grades of the three tissues): scale 0-15
Procedure: Bright-field images of hematoxylin and eosin-stained tissues were acquired with a Nikon Eclipse Ni microscope. Morphologic phenotyping of all cohorts was carried out in a blinded manner by a board-certified veterinary pathologist. A semi-quantitative grading method was used to highlight visual differences in the erythropoiesis in each cohort. The bone marrow, spleen, and liver were first analyzed separately using the following grading scale: grade 0: within normal limits; grade 1: minimal; grade 2: mild; grade 3: moderate; grade 4: marked; grade 5: severe. A total grade for erythropoiesis (final grade) was calculated based on the sum of the grades for each of the three tissues. […] No mouse received a grade consistent with a severe increase in erythropoiesis.
as §1

[4] = tested on: free α-globin in β-thalassemic erythroblasts; assay: Free α-globin by HPLC in erythroblasts derived from β-thalassemia patient CD34+ cells; assay type: cell-based, human; settings: for reduction of free α-globin: rapamycin 10 μM or 20 μM added day 13, HPLC two days later
Procedure: Cells were lysed in Hemolysate reagent (Helena Laboratories, Beaumont, Tex.) and centrifuged. Analysis of globin chains in the supernatant was performed by ion exchange (IE) and reverse phase (RP)-HPLC (Prominence UFLC, Shimadzu). Proteins eluting from the column were quantified by light absorbance at 220, 280, and 415 nm with a diode array detector. The relative amount of free α-globin was calculated from the area of the peak for each condition at 415 nm and normalized based on the DMSO control. The percentage was calculated as follows: % α-globin=[α-chain/ρ-chain (β+γ+δ)×100].

[5] = tested on: β-thalassemic erythroblasts; assay: Cell survival of treated erythroblasts derived from β-thalassemia patient CD34+ cells; settings: added day 13, 48 hours
Description: Erythroid differentiation and maturation were monitored by flow cytometry with an LSR/Fortessa cell analyzer (BD Biosciences), using the following antibodies: anti-CD235a (BD Biosciences), anti-Band3, and anti-α4-integrin (Miltenyi).

[6] = tested on: electron-dense α-globin inclusions in reticulocytes; assay: Transmission electron microscopy of electron-dense aggregates in reticulocytes of treated mice; assay type: in vivo; settings: β-thalassemic mice treated with rapamycin vs vehicle-treated controls; P<0.0001
Procedure: Samples were fixed in 2.5% glutaraldehyde in 0.1M sodium cacodylate buffer, pH 7.4, and embedded in 2% low-gelling-temperature agarose. The samples were post-fixed in 2% osmium tetroxide in 0.1M cacodylate buffer with 0.3% potassium ferrocyanide for 1.5 hours, dehydrated through a graded series of ethanol/propylene oxide solutions, then infiltrated with and embedded in epoxy resin, which was polymerized at 70° C. overnight. Semi-thin (0.5 μm) sections were stained with toluidine blue for light microscope examination. Ultra-thin (80 nm) sections were cut and imaged using an FEI Tecnai 200 Kv FEG Transmission Electron Microscope with an ATM XR41 digital camera.
Areas of electron-dense α-globin inclusions in reticulocytes were quantified by automated image analysis of electron micrographs. TEM images were analyzed with the FIJI software program and the Trainable Weka Segmentation plugin to produce pixel-based segmentations in order to quantify differences in the numbers and areas of intracytoplasmic hemoglobin precipitates in thalassemic and non-thalassemic samples (Schindelin, et al. (2012) Nat. Meth. 9:676-682; Arganda-Carreras, et al. (2017) Bioinformatics 33:2424-2426).
as §1, §2

[7] = tested on: Hbb^Th3/+ reticulocytes; assay: Reticulocyte pulse-chase analysis of insoluble α-globin turnover with inhibitors; assay type: cell-based, mice; settings: 6 hours chase, 10 μM MG132, 100 μM chloroquine or 0.2 μM bafilomycin A1
Procedure: Briefly, reticulocytes were pulse-labeled with ^35S-cysteine and ^35S-methionine for 30 minutes then chased with unlabeled amino acids±proteasome inhibitor (10 μM MG132) and/or lysosome inhibitor (100 μM chloroquine or 0.2 μM bafilomycin A1). Insoluble α-globin was isolated by TAU gel electrophoresis, analyzed by autoradiography, and quantified using AlphaView SA 3.4.0 (ProteinSimple).
To investigate how the depletion of ULK1 or ATG5 affects the turnover of insoluble α-globin in β-thalassemia, mutant reticulocytes were pulse-labeled with ^35S-labeled amino acids, chased for various times with unlabeled amino acids with or without various inhibitors, and the soluble and insoluble nascent radiolabeled α-globin in cell lysates was quantified.

[8] = tested on: Hbb^Th3/+ mice; settings: systemic administration (Khandros 2012); cited from earlier work
[9] = Hbb^+/+ Ulk1^+/+ mice, rapamycin 4 mg/kg i.p. daily 30 days, mean ± SD
[10] = Hbb^Th3/+ Ulk1^+/+ mice, rapamycin 4 mg/kg i.p. daily 30 days, mean ± SD
[11] = Hbb^Th3/+ Ulk1^−/− mice, rapamycin 4 mg/kg i.p. daily 30 days, mean ± SD
[12] = β-thalassemic mice, rapamycin 4 mg/kg i.p. daily 30 days vs vehicle, P<0.001

Compound: CO[C@H]1C[C@@H]2CC[C@@H](C)[C@@](O)(O2)C(=O)C(=O)N2CCCC[C@H]2C(=O)O[C@H]([C@H](C)C[C@@H]2CC[C@@H](O)[C@H](OC)C2)CC(=O)[C@H](C)/C=C(\C)[C@@H](O)[C@@H](OC)C(=O)[C@H](C)C[C@H](C)/C=C/C=C/C=C/1C [rapamycin]
- effect on the accumulation of insoluble α-globin ([1]; Hbb^Th3/+Ulk1^−/− mice): no effect
- decrease of insoluble α-globin in reticulocytes ([1]; rapamycin-treated Hbb^Th3/+ mice): approximately 50%
- Hb [2, 9]: 13.78 ± 1.99^ns g/dL
- Hct [2, 9]: 40.98 ± 5.75^ns %
- MCH [2, 9]: 14.53 ± 0.53^ns pg
- MCHC [2, 9]: 33.66 ± 0.76^ns g/dL
- MCV [2, 9]: 42.89 ± 1.61^ns fL
- RDW [2, 9]: 14.40 ± 0.91^ns %
- Reticulocytes [2, 9]: 2.90 ± 1.21^ns %
- Hb [2, 10]: 10.33 ± 1.07 g/dL
- Hct [2, 10]: 29.42 ± 3.59 %
- MCH [2, 10]: 11.56 ± 1.21 pg
- MCHC [2, 10]: 35.54 ± 1.01 g/dL
- MCV [2, 10]: 32.67 ± 3.02 fL
- RDW [2, 10]: 31.05 ± 5.23 %
- Reticulocytes [2, 10]: 13.06 ± 6.67 %
- Hct [2, 11]: 25.42 ± 4.59^ns %
- MCH [2, 11]: 15.08 ± 1.31^ns pg
- MCHC [2, 11]: 34.99 ± 2.14^ns g/dL
- MCV [2, 11]: 43.03 ± 1.62 fL
- RBC [2, 11]: 5.81 ± 0.99^ns ×10^6/μL
- RDW [2, 11]: 39.73 ± 0.66^ns %
- Reticulocytes [2, 11]: 34.35 ± 2.78^ns %
- effect on RBC indices or erythropoiesis ([2]; wild-type or Hbb^Th3/+Ulk1^−/− mice): no effect
- decrease in reticulocyte count [2, 12]: 44%
- increase in RBC count [2, 12]: 27%
- increase in Hb ([2]; β-thalassemic mice, rapamycin 4 mg/kg i.p. daily 30 days vs vehicle, P<0.05): 10%
- Bone marrow erythropoiesis grade ([3]; Hbb^+/+ Ulk1^+/+ mice): 0.00 ± 0.00^ns
- Liver erythropoiesis grade ([3]; Hbb^+/+ Ulk1^+/+ mice): 0.44 ± 0.53^ns
- Spleen erythropoiesis grade ([3]; Hbb^+/+ Ulk1^+/+ mice): 0.00 ± 0.00^ns
- Final grade (sum of the grades of the three tissues) ([3]; Hbb^+/+ Ulk1^+/+ mice): 0.44 ± 0.53^ns
- Bone marrow erythropoiesis grade ([3]; Hbb^Th3/+ Ulk1^+/+ mice): 1.75 ± 1.67^ns
- Liver erythropoiesis grade ([3]; Hbb^Th3/+ Ulk1^+/+ mice): 0.87 ± 0.35^ns
- Spleen erythropoiesis grade ([3]; Hbb^Th3/+ Ulk1^+/+ mice): 2.37 ± 0.52
- Final grade (sum of the grades of the three tissues) ([3]; Hbb^Th3/+ Ulk1^+/+ mice): 5.00 ± 1.85
- Bone marrow erythropoiesis grade ([3]; Hbb^Th3/+ Ulk1^−/− mice): 3.30 ± 0.48^ns
- Liver erythropoiesis grade ([3]; Hbb^Th3/+ Ulk1^−/− mice): 1.10 ± 0.31
- Spleen erythropoiesis grade ([3]; Hbb^Th3/+ Ulk1^−/− mice): 3.20 ± 0.79^ns
- Final grade (sum of the grades of the three tissues) ([3]; Hbb^Th3/+ Ulk1^−/− mice): 7.60 ± 1.07^ns
- reduction of free α-globin ([4]; NTD β-thalassemic erythroblasts, P<0.001): 85%
- reduction of free α-globin ([4]; TD β-thalassemia erythroblasts, P<0.0001): 40%
- effect on cell survival [5]: no deleterious effect on cell survival
- reduction in electron-dense aggregates in reticulocytes (TEM) [6]: approximately 60%

Compound: CO/C1=C\C(C)=C\[C@@H](C)[C@@H](O)[C@@H](C)C/C(C)=C/C=C/[C@H](OC)[C@@H]([C@@H](C)[C@@H](O)[C@H](C)[C@@]2(O)C[C@@H](O)[C@H](C)[C@@H](C(C)C)O2)OC1=O [bafilomycin A1]
- sensitivity of clearance of labeled insoluble α-globin to the inhibitor [7]: sensitive

Compound: CC(C)C[C@H](NC(=O)[C@H](Cc1ccccc1)NC(=O)c1cnccn1)B(O)O [bortezomib]
- induction of autophagy and heat-shock proteins [8]: induced both autophagy and heat-shock proteins
- insoluble α-globin [8]: no net increase in insoluble α-globin

Compound: CC(C)C[C@@H](C=O)NC(=O)[C@H](CC(C)C)NC(=O)[C@H](CC(C)C)NC(=O)OCc1ccccc1 [MG132] (Cbz-Leu-Leu-Leu-aldehyde)
- free α-globin levels ([4]; β-thalassemic erythroblasts, MG132 1 μM or 2.5 μM added day 13, HPLC two days later): raised free α-globin levels
- effect on cell survival [5]: induced cell death
- sensitivity of clearance of labeled insoluble α-globin to the inhibitor [7]: sensitive

Reference: US11298343B2, “Method for treating thalassemia” (ST. JUDE CHILDREN'S RESEARCH HOSPITAL, priority 2017, dated 2022)
